In patent US20250179073A1, “TRICYCLIC HETEROCYCLE COMPOUNDS AS IAP ANTAGONISTS” (Ascentage Pharma (Suzhou) Co., Ltd., priority 2022, published 2025) one finds IC50 data, which are given here for 14 compounds.

The experiment concerns MDA-MB-231 cells. Description: Cell proliferation assay (CellTiter-Glo), MDA-MB-231. Type of experiment: cell-based. The settings on record: Homo sapiens, MDA-MB-231, 72 h, 72 h treatment, Celltiter-Glo luminescence. The procedure, abridged:
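Compounds tested over ten concentrations ([…]) for 72 h on EVSA-T cells in MEM/10% FBS and MDA-MB-231 cells in RPMI-1640/10% FBS, seeded at 10000/well. Luminescent CellTiter-Glo readout; IC50 fitted after normalisation to controls.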

As to `C[C@@H]1CN(CC(=O)N2CC(C)(C)c3c2cc(Cc2ccc(F)cc2)c2ncnn32)C(CN2CCN(CC#N)C3CC32)CN1` (stereo in doubt) [Compound 213, 2-(5-(((2S,5R)-1-(2-(4-(4-fluorobenzyl)-8,8-dimethyl-7,8-di hydro-6H-pyrrolo[2,3-e][1,2,4]triazolo[1,5-a]pyridin-6-yl)-2-oxoethyl)-5-methylpiperazin-2-yl)methyl)-2,5-diazabicyclo[4.1.0]heptan-2-yl)acetonitrile], the IC50 turned out to be 560 nM.
The result for `C[C@@H]1CN(CC(=O)N2CC(C)(C)c3c2cc(C(O)c2ccc(F)cc2F)c2ncnn32)[C@@H](CN2CCOC[C@H]2C)CN1` (stereo partly drawn) [Compound 50, 1-(4-((2,4-difluorophenyl)(hydroxy)methyl)-8,8-dimethyl-7,8-dihydro-6H-pyrrolo[2,3-e][1,2,4]triazolo[1,5-a]pyridin-6-yl)-2-((2R,5R)-5-methyl-2-(((R)-3-methylmorpholino)methyl)piperazin-1-yl)ethan-1-one] reads above 10000 nM.
The result for `C[C@@H]1CN(CC(=O)N2CC3(CCOCC3)c3c2cc(Cc2ccc(F)cc2)c2nc(C(F)(F)F)cn32)[C@@H](CN2CCOC[C@H]2C)CN1` [Compound 183, 1-(4-(4-fluorobenzyl)-2-(trifluoromethyl)-2′,3′,5′,6′-tetrahydrospiro[imidazo[1,2-a]pyrrolo[2,3-e]pyridine-8,4′-pyran]-6(7H)-yl)-2-((2R,5R)-5-methyl-2-(((R)-3-methylmorpholino)methyl)piperazin-1-yl)ethan-1-one] reads 810 nM; that for `C[C@@H]1CN(CC(=O)N2CC(C)(C)c3c2cc(Cc2ccc(F)cc2)c2nc(CS(C)(=O)=O)nn32)[C@@H](CN2CCOC[C@H]2C)CN1` [Compound 141, 1-(4-(4-fluorobenzyl)-8,8-dimethyl-2-((methylsulfonyl)methyl)-7,8-dihydro-6H-pyrrolo[2,3-e][1,2,4]triazolo[1,5-a]pyridin-6-yl)-2-((2R,5R)-5-methyl-2-(((R)-3-methylmorpholino)methyl)piperazin-1-yl)ethan-1-one], 310 nM; that for `C[C@@H]1CN(CC(=O)N2CC(C)(C)c3c2cc(Cc2ccc(F)cc2)c2nn(CC(C)(C)O)c(=O)n32)[C@@H](CN2C[C@H]3C[C@@H]2CO3)CN1` [Compound 284, 6-(2-((2R,5R)-2-(((1R,4R)-2-oxa-5-azabicyclo[2.2.1]heptan-5-yl)methyl)-5-methylpiperazin-1-yl)acetyl)-4-(4-fluorobenzyl)-2-(2-hydroxy-2-methylpropyl)-8,8-dimethyl-2,6,7,8-tetrahydro-1H-pyrrolo[2,3-e][1,2,4]triazolo[4,3-a]pyridin-1-one], 250 nM.
For the compound `C[C@@H]1CN(CC(=O)N2CC(C)(C)c3c2cc(Cc2ccc(F)cc2F)c2nn(CC(C)(C)O)c(=O)n32)[C@@H](CN2CCOC[C@H]2C)CN1` [Compound 274, 4-(2,4-difluorobenzyl)-2-(2-hydroxy-2-methylpropyl)-8,8-dimethyl-6-(2-((2R,5R)-5-methyl-2-(((R)-3-methylmorpholino)methyl)piperazin-1-yl)acetyl)-2,6,7,8-tetrahydro-1H-pyrrolo[2,3-e][1,2,4]triazolo[4,3-a]pyridin-1-one], the IC50 came out at 9 nM.
Take `C[C@@H]1CN(CC(=O)N2CC(C)(C)c3c2cc(Cc2ccc(F)cc2)c2nccnc32)[C@@H](CN2CCOC[C@H]2C)CN1` [Example 26, 1-(5-(4-fluorobenzyl)-9,9-dimethyl-8,9-dihydro-7H-pyrrolo[3,2-f]quinoxalin-7-yl)-2-((2R,5R)-5-methyl-2-(((R)-3-methylmorpholino)methyl)piperazin-1-yl)ethan-1-one]: the IC50 amounted to 180 nM.
The result for `C[C@@H]1CN(CC(=O)N2CC(C)(C)c3c2cc(C(=O)c2ccc(F)cc2)c2ncnn32)[C@@H](CN2CCOC[C@H]2C)CN1` [Compound 139, 1-(4-(4-fluorobenzoyl)-8,8-dimethyl-7,8-dihydro-6H-pyrrolo[2,3-e][1,2,4]triazolo[1,5-a]pyridin-6-yl)-2-((2R,5R)-5-methyl-2-(((R)-3-methylmorpholino)methyl)piperazin-1-yl)ethan-1-one] reads 710 nM; that for `CCc1ncc2c(Cc3ccc(F)cc3)cc3c(n12)C(C)(C)CN3C(=O)CN1C[C@@H](C)NC[C@@H]1CN1CCOC[C@H]1C` [Example 4, 1-(1-ethyl-4-(4-fluorobenzyl)-8,8-dimethyl-7,8-dihydro-6H-imidazo[1,5-a]pyrrolo[2,3-e]pyridin-6-yl)-2-((2R,5R)-5-methyl-2-(((R)-3-methylmorpholino)methyl)piperazin-1-yl)ethan-1-one], 97 nM.
The result for `C[C@@H]1CN(CC(=O)N2CC(C)(C)c3c2cc(Cc2ccc(F)cc2)c2nc(N4CCNC(=O)C4)nn32)[C@@H](CN2CCOC[C@H]2C)CN1` [Compound 195, 4-(4-(4-fluorobenzyl)-8,8-dimethyl-6-(2-((2R,5R)-5-methyl-2-(((R)-3-methylmorpholino)methyl)piperazin-1-yl)acetyl)-7,8-dihydro-6H-pyrrolo[2,3-e][1,2,4]triazolo[1,5-a]pyridin-2-yl)piperazin-2-one] reads 180 nM.
The result for `C[C@@H]1CN(CC(=O)N2CC(C)(C)c3c2cc(Cc2ccc(F)cc2)c2nnc(N)n32)[C@@H](CN2CCOC[C@H]2C)CN1` [Compound 136, 1-(1-amino-4-(4-fluorobenzyl)-8,8-dimethyl-7,8-dihydro-6H-pyrrolo[2,3-e][1,2,4]triazolo[4,3-a]pyridin-6-yl)-2-((2R,5R)-5-methyl-2-(((R)-3-methylmorpholino)methyl)piperazin-1-yl)ethan-1-one] reads 1390 nM; that for `C[C@@H]1CN(CC(=O)N2CC(C)(C)c3c2cc(C(F)(F)C24CC(C(F)(F)F)(C2)C4)c2ncnn32)[C@@H](CN2CCOC[C@H]2C)CN1` [Compound 166, 1-(4-(difluoro(3-(trifluoromethyl)bicyclo[1.1.1]pentan-1-yl)methyl)-8,8-dimethyl-7,8-dihydro-6H-pyrrolo[2,3-e][1,2,4]triazolo[1,5-a]pyridin-6-yl)-2-((2R,5R)-5-methyl-2-(((R)-3-methylmorpholino)methyl)piperazin-1-yl)ethan-1-one], 150 nM.
`C[C@@H]1CN(CC(=O)N2CC(C)(C)c3c2cc(Cc2ccc(F)cc2)c2ncnn32)[C@@H](CN2CC3CC2CO3)CN1` (stereo partly drawn) [Compound 78, 2-((2R,5R)-2-((2-oxa-5-azabicyclo[2.2.1]heptan-5-yl)methyl)-5-methylpiperazin-1-yl)-1-(4-(4-fluorobenzyl)-8,8-dimethyl-7,8-dihydro-6H-pyrrolo[2,3-e][1,2,4]triazolo[1,5-a]pyridin-6-yl)ethan-1-one]: the IC50 came out at 120 nM.
The result for `C[C@@H]1CN(CC(=O)N2CC(C)(C)c3c2cc(Cc2ccc(F)cc2)c2cnc(C4CCOCC4)n32)[C@@H](CN2CCOC[C@H]2C)CN1` [Example 7, 1-(4-(4-fluorobenzyl)-8,8-dimethyl-1-(tetrahydro-2H-pyran-4-yl)-7,8-dihydro-6H-imidazo[1,5-a]pyrrolo[2,3-e]pyridin-6-yl)-2-((2R,5R)-5-methyl-2-(((R)-3-methylmorpholino)methyl)piperazin-1-yl)ethan-1-one] reads 140 nM.
